Measured values taken from ChEMBL document CHEMBL1122042, “Chemical synthesis and molecular pharmacology of hydroxylated 1-(1-phenylcyclohexyl-piperidine derivatives” (1982).

Organism: Mus musculus
Assay: Effective dose for inhibition of phencyclidine binding measured in mouse rotarod assay
Assay type: functional

| SMILES | ED50 [mg/kg] |
| --- | --- |
| Oc1cccc(C2(N3CCCCC3)CCCCC2)c1 | 2.2 |
| OC1CCCC(c2ccccc2)(N2CCCCC2)C1 (stereo unspecified) | 49.9 |
| Oc1ccc(C2(N3CCCCC3)CCCCC2)cc1 | 28 |
| OC1CCN(C2(c3ccccc3)CCCCC2)CC1 | 42 |
| Oc1ccccc1C1(N2CCCCC2)CCCCC1 | 18 |
| c1ccc(C2(N3CCCCC3)CCCCC2)cc1 [PHENCYCLIDINE] | 4 |
